Literature values in US20230364026A1, “[…] NANOPARTICLE FORMULATIONS OF CANNABINOIDS AND C[…] WITH REDUCED OSTWALD RIPENING FOR ORAL, INHALATION, NASAL AND […] DELIVERY” (Luminus Biosciences, Inc., priority 2020, published 2023).

How the values were obtained:
[1] = pH values ranging from 1.2 to 7.0
[2] = administered orally, human gastrointestinal tract
[3] = self-experiment, compared to THC

**Q.** For `CCCCCCC(C)(C)c1cc(O)c2c(c1)OC(C)(C)C1CCC(=O)CC21` (racemic) [Nabilone, (±)-trans-3-(1,1-dimethylheptyl)-6,6a,7,8,10,10a-hexahydro-1-hydroxy-6-6-dimethyl-9H-dibenzo[b,d] pyran-9-one], which solubility in water [1] is on record?
**A.** less than 0.5 mg/L

**Q.** What about the oral absorption [2] of the same molecule?
**A.** completely absorbed

**Q.** Which “duration of effects in humans” value [3] does the source give for `CCCCCn1cc(C(=O)c2cccc3ccccc23)c2ccccc21` [JWH-018] here?
**A.** 1 to 2 h

**Q.** For `CCCCCCCC(C)(C)c1ccc([C@H]2CCC[C@@H](O)C2)c(O)c1` [CP 47,497-C8], which “duration of effects in humans” value [3] is on record?
**A.** 5 to 6 h
